The values below come from patent US12533429B2, “Surface enhanced raman scattering nanoparticles and their use in detecting and imaging oxidative stress” (The Board of Trustees of the Leland Stanford Junior …, priority 2019, dated 2026).

For experiment [1], the system named is AD-MSCs. The experiment can be described thus: DCFH-DA fluorometric ROS assay in AD-MSCs. To be noted: 300,000 AD-MSCs. The experiment is classed as cell-based.
In experiment [2] the test system is A431 cells. Description: DCFH-DA fluorometric ROS assay in A431 cells. The format is cell-based, human. To be noted: DCFH-DA 40 μM, 24 h. As to the method: (§1) To measure ROS, a traditional fluorometric assay using Dichlorofluorescein diacetate (DCFH-DA; Sigma Aldrich, USA) was performed. DCFH-DA is a cell-permeable non-fluorescent probe which is hydrolyzed by intracellular esterases, thereby trapping it within the cell. This non-fluorescent molecule can then be oxidized by ROS, which turns it into fluorescent dichlorofluorescein (DCF). The level of intracellular fluorescence is therefore proportional to the amount of intracellular ROS production with a linear dynamic range [12]. All experiments were performed in 12-well plates. A431 and AsPC-1 cells were seeded in 12-well culture plates achieving a cell density of 50,000, 100,000, 200,000 and 300,000 cells/well. Cells were incubated with DCFH-DA (40 μM, 200 μL) in DMEM-10% FBS-50 U/mL penicillin-50 μg/mL streptomycin culture medium at 37° C. in a humidified incubator containing 5% CO2/95% air for 24 h. The fluorescence from DCF was then measured using a microplate spectrophotometer system with […].

The subject of experiment [3] is AsPC-1 cells. Description: DCFH-DA fluorometric ROS assay in AsPC-1 cells. The format is cell-based, human. The note with it: DCFH-DA 40 μM, 24 h. As to the method: as §1

Where “and” joins values, the source holds several entries; their conditions need not be identical. Identical values can stand only once.

Consider Dichlorofluorescein diacetate [DCFH-DA], for which the “ROS production, DCFH-DA assay” value in experiment [1] was 1.06±0.05 absorbance units; in experiment [2] (50,000 A431 cells) it was 0.17±0.01 absorbance units; in experiment [2] (100,000 A431 cells), 0.49±0.01 absorbance units; in experiment [2] (200,000 A431 cells), 0.96±0.07 absorbance units; in experiment [2] (300,000 A431 cells) it was 1.06±0.05 absorbance units and 1.10±0.04 absorbance units; in experiment [3] (50,000 AsPC-1 cells) it was 0.15±0.04 absorbance units. Besides, the “ROS production, DCFH-DA assay” value in experiment [3] (100,000 AsPC-1 cells) was found to be 0.51±0.06 absorbance units; in experiment [3] (200,000 AsPC-1 cells), 0.82±0.05 absorbance units.
